What all share (assay): DHODH Inhibition Assay
Assay [1] deals with Dihydroorotate dehydrogenase (quinone), mitochondrial [R265A] (Plasmodium falciparum, UniProt Q54A96, R265A). Here is the method: (§1) The assays were carried out by using a colorimetric DCIP method, which uses the colorimetric reagent 2, 6-dichlorophenolindophenol as the final electron acceptor. DCIP reduction is stoichiometrically equivalent to oxidation of dihydroorotate. Changes in absorbance were quantified on a plate reader and data were analyzed to measure the reduction of DCIP as a decrease in absorbance at 600 nm. For the determination of the IC50 values (concentration of inhibitor required for 50% inhibition) different inhibitor concentrations were applied.

In assay [2] the target is T1, Dihydroorotate dehydrogenase (quinone), mitochondrial (Plasmodium falciparum, UniProt Q54A96).
T1 sequence (Q54A96 whole entry): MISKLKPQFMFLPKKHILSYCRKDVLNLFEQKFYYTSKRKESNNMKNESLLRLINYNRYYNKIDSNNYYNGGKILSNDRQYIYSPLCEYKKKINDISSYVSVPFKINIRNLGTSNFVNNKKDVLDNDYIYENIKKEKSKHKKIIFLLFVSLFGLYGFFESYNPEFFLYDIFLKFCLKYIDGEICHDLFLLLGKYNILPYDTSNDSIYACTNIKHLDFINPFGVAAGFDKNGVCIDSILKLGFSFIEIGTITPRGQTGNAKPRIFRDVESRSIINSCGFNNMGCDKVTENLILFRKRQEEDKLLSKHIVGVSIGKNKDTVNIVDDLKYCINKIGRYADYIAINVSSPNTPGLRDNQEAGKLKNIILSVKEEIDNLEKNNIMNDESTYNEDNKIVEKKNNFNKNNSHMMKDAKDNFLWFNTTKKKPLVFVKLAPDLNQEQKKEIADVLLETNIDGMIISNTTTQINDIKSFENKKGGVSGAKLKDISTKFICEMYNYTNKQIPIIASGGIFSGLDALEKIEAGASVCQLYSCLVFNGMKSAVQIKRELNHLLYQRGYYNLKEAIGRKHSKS
The settings on record: pH 8; 22 °C. Here is the method:
as §1

In assay [3] the target is T2, Dihydroorotate dehydrogenase (quinone), mitochondrial [30-395] (Homo sapiens, UniProt Q02127).
T2 construct: 30-395
Here is the method:
as §1

The target in assay [4] is Dihydroorotate dehydrogenase (quinone), mitochondrial [H185A] (Plasmodium falciparum, UniProt Q54A96, H185A). As for the experimental part:
as §1

T2 sequence (Q02127 30-395): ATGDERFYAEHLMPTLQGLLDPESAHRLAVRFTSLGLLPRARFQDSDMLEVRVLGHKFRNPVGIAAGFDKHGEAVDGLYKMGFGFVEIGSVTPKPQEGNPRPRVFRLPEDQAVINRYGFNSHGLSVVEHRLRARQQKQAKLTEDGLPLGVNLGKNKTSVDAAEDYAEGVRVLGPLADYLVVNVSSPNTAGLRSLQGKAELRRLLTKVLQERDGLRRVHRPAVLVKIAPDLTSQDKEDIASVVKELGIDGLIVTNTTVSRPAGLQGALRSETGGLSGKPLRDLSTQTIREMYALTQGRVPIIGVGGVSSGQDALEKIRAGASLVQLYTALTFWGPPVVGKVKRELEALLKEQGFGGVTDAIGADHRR
Sequence of Dihydroorotate dehydrogenase (quinone), mitochondrial [R265A] (Q54A96 whole entry R265A): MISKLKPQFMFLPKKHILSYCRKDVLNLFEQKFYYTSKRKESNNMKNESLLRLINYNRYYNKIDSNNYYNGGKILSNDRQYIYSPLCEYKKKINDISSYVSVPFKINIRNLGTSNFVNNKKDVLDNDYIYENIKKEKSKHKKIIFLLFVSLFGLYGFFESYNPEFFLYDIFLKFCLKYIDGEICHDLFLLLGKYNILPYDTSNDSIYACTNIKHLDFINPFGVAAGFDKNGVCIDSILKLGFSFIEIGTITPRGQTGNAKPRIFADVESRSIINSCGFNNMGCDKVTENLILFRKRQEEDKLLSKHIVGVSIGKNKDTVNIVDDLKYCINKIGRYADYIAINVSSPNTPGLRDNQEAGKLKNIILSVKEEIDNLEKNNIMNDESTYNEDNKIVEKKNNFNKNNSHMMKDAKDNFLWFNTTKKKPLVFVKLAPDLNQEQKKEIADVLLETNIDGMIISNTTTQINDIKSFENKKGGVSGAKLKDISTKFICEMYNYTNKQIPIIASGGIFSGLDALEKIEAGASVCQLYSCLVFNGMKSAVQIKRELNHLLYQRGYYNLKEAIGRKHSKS
Sequence of Dihydroorotate dehydrogenase (quinone), mitochondrial [H185A] (Q54A96 whole entry H185A): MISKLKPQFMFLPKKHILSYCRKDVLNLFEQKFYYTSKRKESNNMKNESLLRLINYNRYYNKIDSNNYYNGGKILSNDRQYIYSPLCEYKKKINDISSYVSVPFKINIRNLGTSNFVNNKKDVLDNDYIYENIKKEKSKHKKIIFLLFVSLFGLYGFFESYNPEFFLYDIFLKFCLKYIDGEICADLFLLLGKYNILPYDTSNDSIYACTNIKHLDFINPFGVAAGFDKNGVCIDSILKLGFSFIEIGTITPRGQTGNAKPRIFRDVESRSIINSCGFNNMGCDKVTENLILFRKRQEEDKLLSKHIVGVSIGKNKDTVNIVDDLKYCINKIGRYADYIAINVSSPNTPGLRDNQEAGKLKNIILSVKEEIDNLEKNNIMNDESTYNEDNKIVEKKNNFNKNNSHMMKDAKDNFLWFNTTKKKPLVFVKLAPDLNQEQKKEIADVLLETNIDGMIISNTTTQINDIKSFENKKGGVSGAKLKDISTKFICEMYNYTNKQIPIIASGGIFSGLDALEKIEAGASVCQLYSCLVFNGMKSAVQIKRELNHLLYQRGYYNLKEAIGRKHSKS

For the molecule `Cc1c(C(=O)Nc2cccc3ccccc23)cccc1[N+](=O)[O-]` [2-methyl-N-(naphthalen-1-yl)-3-nitrobenzamide], the IC50 was determined as 0.48 µM in assay [1], 0.08 µM in assay [2], 100 µM in assay [3] and 180 µM in assay [4].
In the case of `Cc1c(C(=O)Nc2ccc(F)c(F)c2)cccc1[N+](=O)[O-]` [N-(3,4-difluorophenyl)-2-methyl-3-nitrobenzamide], the IC50 in assay [1] was 0.82 µM; in assay [2] it was 0.26 µM; in assay [3] it was 200 µM; in assay [4] it was 250 µM.
For `Cc1c(C(=O)Nc2cccc(Br)c2)cccc1[N+](=O)[O-]` [N-(3-bromophenyl)-2-methyl-3-nitrobenzamide], the IC50 in assay [1] worked out at 1.2 µM; in assay [2] it was 0.06 µM; in assay [3], 105 µM; in assay [4], 140 µM.
Consider `Cc1c(C(=O)Nc2ccc(F)c(Cl)c2)cccc1[N+](=O)[O-]` [N-(3-chloro-4-fluorophenyl)-2-methyl-3-nitrobenzamide], for which the IC50 stood at 0.5 µM in assay [1], 0.1 µM in assay [2], 116 µM in assay [3] and 130 µM in assay [4].
For `Cc1c(C(=O)Nc2cccc(C(F)(F)F)c2)cccc1[N+](=O)[O-]` [2-methyl-3-nitro-N-[3-(trifluoromethyl)phenyl]benzamide], in that order: 0.37 µM, 0.08 µM, 150 µM and 120 µM.
The corresponding values for `Cc1c(C(=O)Nc2cc(Cl)cc(Cl)c2)cccc1[N+](=O)[O-]` [Asinex compound no. 6] are 0.4 µM, 0.016 µM, 200 µM and 130 µM.
For `O=C(Nc1ccc(Cl)cc1)Nc1cccc2cccnc12` [3-(4-chlorophenyl)-1-quinolin-8-ylurea], the IC50 was 2 µM in assay [1], 0.78 µM in assay [2], 116 µM in assay [3] and above 400 µM in assay [4].
For `O=C(Nc1ccc(Cl)cc1Cl)c1ccc2ccccc2c1` [N-(2,4-dichlorophenyl)naphthalene-2-carboxamide], in that order: 0.08 µM, 0.05 µM, above 50 µM and above 50 µM.
The corresponding values for `Cc1c(C(=O)Nc2ccc(Cl)c(Cl)c2)cccc1[N+](=O)[O-]` [N-(3,4-dichlorophenyl)-2-methyl-3-nitrobenzamide] are 2.8 µM, 0.08 µM, 72 µM and 60 µM.
For `O=C(Nc1ccccc1F)c1ccc2ccccc2c1` [N-(2-fluorophenyl)naphthalene-2-carboxamide], in that order: 0.3 µM, 0.47 µM, 34 µM and 210 µM.
Turning to `COc1ccccc1NC(=O)Nc1cccc2ccccc12` [3-(2-methoxyphenyl)-1-naphthalen-1-ylurea], the IC50 in assay [1] was 0.24 µM; in assay [2] it was 0.23 µM; in assay [3] it was 112 µM; in assay [4] it was 140 µM.
Take `Cc1cc(Br)ccc1NC(=O)c1ccc2ccccc2c1` [ChemBridge compound no. 2]: the IC50 stood at 0.05 µM in assay [1], 0.05 µM in assay [2], 210 µM in assay [3] and 570 µM in assay [4].
Take `O=C(Nc1ccccc1C(F)(F)F)Nc1cccc2ccccc12` [1-naphthalen-1-yl-3-[2-(trifluoromethyl)phenyl]urea]: the IC50 in assay [1] is 0.34 µM; in assay [2] it was 0.4 µM; in assay [3], above 1000 µM; in assay [4], above 200 µM.

As a reminder, the IC50 is the point on the concentration scale where inhibition reaches its midpoint. Low values mean greater potency, high ones weaker potency.

The values above are taken from BindingDB's records for doi:10.1074/jbc.M501100200 (University of Texas Southwestern Medical Center, 2005).
